The text below walks through data of ChEMBL document CHEMBL5465560, “Selectivity Literature for EUbOPEN Chemogenomic Library” (2024).

Where only a bound is given, the exact number is not on record here.

Experiment [1] concerns the target Cyclin-dependent kinase 7 (Homo sapiens, UniProt P50613). Nature of the experiment: Selectivity interaction (KinomeScan (DiscoverX)) EUB0000666a CDK7. The note with it: at 10 µM.
For experiment [2], the target named is Rho-associated protein kinase 2 (Homo sapiens, UniProt O75116). Nature of the experiment: Selectivity interaction (KinomeScan (DiscoverX)) EUB0000229b ROCK2. The note with it: at 10 µM.
Chain of Rho-associated protein kinase 2 (O75116 whole entry, looked up): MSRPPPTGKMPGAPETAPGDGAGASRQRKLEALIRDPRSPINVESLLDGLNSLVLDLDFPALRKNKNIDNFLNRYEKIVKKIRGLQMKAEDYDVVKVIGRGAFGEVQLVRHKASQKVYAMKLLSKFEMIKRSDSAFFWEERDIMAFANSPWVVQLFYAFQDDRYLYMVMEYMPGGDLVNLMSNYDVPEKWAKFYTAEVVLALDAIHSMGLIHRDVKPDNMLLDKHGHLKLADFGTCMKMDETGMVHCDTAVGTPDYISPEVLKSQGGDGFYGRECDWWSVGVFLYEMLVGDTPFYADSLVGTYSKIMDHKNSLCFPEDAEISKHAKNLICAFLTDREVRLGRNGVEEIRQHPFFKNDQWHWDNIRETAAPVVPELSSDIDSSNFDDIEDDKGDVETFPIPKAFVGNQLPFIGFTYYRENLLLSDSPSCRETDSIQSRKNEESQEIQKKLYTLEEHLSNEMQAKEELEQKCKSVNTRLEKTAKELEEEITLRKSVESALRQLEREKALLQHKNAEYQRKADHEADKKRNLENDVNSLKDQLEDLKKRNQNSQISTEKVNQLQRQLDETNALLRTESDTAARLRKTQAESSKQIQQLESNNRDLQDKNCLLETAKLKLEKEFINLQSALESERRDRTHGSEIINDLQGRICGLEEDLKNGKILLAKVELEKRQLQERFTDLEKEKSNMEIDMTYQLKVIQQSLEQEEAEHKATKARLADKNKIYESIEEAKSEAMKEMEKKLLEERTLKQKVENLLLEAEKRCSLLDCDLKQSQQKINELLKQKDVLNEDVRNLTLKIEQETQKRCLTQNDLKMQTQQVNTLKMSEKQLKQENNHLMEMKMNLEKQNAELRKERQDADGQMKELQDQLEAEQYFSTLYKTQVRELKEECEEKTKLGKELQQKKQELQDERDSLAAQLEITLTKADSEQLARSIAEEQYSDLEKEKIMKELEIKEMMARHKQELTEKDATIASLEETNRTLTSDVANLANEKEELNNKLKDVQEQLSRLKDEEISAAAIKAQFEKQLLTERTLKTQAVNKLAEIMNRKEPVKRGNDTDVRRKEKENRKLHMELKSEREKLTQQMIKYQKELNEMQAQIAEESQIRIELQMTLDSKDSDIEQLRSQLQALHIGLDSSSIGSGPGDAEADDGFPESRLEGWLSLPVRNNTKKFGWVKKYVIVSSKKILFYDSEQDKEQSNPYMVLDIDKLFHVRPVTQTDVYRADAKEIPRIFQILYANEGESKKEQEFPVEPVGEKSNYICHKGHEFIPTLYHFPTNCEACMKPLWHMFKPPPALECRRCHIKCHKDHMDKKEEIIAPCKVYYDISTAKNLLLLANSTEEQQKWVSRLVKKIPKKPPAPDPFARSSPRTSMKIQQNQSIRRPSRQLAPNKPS
Experiment [3] has as its target T1, Ephrin type-A receptor 6 (Homo sapiens) (UniProt Q9UF33).
T1 sequence (whole entry): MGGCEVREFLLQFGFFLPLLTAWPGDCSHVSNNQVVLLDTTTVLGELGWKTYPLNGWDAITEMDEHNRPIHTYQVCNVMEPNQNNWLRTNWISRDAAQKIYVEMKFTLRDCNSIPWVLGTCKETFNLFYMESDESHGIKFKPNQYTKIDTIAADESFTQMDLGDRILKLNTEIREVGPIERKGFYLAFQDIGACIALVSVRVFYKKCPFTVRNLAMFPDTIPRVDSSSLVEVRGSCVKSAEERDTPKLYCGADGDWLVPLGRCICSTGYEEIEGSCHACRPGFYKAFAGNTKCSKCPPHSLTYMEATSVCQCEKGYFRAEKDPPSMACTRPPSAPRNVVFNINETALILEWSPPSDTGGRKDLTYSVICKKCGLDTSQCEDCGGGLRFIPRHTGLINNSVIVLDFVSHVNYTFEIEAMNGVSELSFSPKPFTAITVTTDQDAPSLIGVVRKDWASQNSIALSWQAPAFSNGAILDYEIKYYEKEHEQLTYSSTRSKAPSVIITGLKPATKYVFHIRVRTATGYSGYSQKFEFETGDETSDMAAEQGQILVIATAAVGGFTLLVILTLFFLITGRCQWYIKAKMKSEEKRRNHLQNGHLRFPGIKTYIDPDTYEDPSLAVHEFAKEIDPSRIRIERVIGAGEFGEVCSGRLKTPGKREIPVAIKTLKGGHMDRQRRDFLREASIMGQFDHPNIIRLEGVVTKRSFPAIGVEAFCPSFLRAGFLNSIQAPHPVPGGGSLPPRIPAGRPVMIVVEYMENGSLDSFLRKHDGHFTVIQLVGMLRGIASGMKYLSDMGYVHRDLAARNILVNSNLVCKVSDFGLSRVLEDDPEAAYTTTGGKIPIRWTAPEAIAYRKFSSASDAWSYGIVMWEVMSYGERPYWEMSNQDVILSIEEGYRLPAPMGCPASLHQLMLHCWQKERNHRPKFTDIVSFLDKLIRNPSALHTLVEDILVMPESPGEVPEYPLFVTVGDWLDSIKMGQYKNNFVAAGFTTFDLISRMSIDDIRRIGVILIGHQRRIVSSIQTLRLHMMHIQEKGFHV
Nature of the experiment: Selectivity interaction (KinomeScan (DiscoverX)) EUB0000655a EPHA6. Particulars: at 10 µM.

Experiment [4] deals with Leucine-rich repeat serine/threonine-protein kinase 2 (Homo sapiens), Q5S007 [G2019S]. The note with it: at 1 µM.
Chain of Leucine-rich repeat serine/threonine-protein kinase 2 (Homo sapiens), Q5S007 [G2019S] (Q5S007 whole entry G2019S): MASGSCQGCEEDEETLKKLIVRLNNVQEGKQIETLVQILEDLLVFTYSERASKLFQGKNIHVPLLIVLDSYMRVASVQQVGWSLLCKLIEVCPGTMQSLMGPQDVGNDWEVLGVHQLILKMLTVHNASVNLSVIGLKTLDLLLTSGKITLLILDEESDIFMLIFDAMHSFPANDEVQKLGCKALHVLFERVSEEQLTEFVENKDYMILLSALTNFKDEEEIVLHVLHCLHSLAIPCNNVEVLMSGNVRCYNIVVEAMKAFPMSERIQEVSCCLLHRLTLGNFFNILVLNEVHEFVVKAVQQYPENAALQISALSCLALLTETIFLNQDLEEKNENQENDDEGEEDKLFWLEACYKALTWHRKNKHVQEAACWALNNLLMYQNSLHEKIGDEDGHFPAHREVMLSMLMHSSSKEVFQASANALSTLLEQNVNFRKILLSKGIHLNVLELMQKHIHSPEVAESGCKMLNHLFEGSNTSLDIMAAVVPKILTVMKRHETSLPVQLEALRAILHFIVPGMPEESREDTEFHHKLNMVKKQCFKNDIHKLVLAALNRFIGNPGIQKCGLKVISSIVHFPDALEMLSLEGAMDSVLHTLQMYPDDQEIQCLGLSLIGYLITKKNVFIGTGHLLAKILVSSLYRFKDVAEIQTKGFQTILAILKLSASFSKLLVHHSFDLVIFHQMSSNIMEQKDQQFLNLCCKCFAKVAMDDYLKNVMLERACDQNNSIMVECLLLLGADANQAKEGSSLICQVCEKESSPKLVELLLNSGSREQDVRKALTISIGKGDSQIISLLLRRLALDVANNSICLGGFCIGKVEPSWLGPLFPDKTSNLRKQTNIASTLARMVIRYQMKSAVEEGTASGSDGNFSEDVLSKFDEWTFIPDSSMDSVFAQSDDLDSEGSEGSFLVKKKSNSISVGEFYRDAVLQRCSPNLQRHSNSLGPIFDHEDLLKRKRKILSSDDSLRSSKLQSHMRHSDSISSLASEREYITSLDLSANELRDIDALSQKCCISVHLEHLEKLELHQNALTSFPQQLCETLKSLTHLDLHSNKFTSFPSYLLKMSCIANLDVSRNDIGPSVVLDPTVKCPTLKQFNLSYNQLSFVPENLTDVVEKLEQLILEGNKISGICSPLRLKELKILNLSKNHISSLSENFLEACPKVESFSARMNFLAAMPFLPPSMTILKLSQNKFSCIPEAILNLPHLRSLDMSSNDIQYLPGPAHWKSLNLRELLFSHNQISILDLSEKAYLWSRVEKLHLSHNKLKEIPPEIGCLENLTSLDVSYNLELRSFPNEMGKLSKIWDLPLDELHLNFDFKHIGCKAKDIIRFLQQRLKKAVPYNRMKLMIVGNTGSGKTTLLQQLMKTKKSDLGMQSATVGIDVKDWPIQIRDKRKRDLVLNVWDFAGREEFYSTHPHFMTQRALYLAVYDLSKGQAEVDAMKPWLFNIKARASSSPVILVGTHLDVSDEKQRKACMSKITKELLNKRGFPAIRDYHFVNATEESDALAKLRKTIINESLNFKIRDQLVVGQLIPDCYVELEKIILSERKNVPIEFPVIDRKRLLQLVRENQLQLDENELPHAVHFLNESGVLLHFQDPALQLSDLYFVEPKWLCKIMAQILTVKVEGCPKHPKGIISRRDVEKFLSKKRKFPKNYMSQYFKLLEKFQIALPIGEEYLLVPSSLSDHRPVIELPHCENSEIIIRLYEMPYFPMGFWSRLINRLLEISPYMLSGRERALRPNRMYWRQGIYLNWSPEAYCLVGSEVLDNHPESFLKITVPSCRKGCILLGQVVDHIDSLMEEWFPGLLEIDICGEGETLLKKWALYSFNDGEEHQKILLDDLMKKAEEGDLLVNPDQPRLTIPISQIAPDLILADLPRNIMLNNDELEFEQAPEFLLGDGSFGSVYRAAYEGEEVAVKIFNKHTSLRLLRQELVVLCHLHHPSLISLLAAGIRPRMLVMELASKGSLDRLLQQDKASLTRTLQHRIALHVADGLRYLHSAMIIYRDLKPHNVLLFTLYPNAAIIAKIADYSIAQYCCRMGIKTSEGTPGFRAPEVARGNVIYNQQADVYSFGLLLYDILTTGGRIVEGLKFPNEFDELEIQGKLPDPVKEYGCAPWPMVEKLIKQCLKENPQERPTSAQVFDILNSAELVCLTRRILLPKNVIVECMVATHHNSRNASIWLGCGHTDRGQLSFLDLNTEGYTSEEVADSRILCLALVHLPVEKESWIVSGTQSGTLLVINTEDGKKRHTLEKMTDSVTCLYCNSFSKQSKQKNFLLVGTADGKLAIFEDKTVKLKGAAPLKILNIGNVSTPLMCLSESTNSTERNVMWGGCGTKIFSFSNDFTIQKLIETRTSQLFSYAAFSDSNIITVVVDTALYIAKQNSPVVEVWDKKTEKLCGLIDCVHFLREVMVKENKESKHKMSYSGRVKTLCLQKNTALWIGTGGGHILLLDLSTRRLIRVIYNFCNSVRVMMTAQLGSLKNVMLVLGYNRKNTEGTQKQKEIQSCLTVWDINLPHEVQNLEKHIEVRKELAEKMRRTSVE
Experiment [5] concerns the target T2, RNA 5'-monophosphate methyltransferase (Homo sapiens) (UniProt Q7Z5W3).
T2 sequence (whole entry): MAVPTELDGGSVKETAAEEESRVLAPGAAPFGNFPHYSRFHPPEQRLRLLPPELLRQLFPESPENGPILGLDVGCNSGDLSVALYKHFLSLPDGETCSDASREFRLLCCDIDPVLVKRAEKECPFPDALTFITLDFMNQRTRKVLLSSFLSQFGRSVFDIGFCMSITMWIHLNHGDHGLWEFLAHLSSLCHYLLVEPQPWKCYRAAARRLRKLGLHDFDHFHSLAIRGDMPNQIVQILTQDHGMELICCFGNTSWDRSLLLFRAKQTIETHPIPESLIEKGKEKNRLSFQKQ
Nature of the experiment: Selectivity interaction (Transferase panel (protein, RNA, and DNA methyltransferases. and EP300 (acetyltransferase))) EUB0000270b BCDIN3D.

The target in experiment [6] is T3, Phosphatidylinositol 5-phosphate 4-kinase type-2 beta (Homo sapiens) (UniProt P78356).
T3 sequence (whole entry): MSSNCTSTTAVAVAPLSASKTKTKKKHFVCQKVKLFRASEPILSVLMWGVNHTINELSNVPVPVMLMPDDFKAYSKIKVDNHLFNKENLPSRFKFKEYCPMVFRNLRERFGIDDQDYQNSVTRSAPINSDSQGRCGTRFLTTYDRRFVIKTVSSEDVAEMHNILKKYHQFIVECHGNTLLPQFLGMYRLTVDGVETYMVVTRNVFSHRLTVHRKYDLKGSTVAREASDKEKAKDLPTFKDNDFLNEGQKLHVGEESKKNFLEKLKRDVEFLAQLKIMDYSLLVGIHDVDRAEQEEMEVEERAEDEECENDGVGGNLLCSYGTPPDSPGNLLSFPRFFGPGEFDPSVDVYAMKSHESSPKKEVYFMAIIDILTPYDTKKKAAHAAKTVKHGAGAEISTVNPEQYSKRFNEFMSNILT
Nature of the experiment: Selectivity interaction (KinomeScan (DiscoverX)) EUB0000092b PIP4K2B. The note with it: at 10 µM.

Experiment [7] deals with MAP kinase-interacting serine/threonine-protein kinase 1 (Homo sapiens) (UniProt Q9BUB5). Nature of the experiment: Selectivity interaction (KinomeScan (DiscoverX)) EUB0000618a MKNK1. The note with it: at 10 µM.
Chain of MAP kinase-interacting serine/threonine-protein kinase 1 (Homo sapiens) (Q9BUB5 whole entry, looked up, canonical isoform): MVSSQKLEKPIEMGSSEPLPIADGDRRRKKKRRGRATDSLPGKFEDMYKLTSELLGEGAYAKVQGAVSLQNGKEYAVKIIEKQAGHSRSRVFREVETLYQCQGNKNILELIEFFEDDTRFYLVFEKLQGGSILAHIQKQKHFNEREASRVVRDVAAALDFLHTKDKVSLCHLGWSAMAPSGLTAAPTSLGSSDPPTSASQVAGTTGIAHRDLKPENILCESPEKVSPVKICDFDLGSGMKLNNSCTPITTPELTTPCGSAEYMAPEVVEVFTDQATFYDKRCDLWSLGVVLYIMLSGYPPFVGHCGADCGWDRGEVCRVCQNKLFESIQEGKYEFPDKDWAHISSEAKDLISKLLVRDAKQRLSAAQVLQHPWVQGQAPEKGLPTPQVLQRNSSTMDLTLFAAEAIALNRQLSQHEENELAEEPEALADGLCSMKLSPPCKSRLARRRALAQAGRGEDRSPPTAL
The target in experiment [8] is T4, Casein kinase I isoform alpha-like (Homo sapiens) (UniProt Q8N752).
T4 sequence (whole entry): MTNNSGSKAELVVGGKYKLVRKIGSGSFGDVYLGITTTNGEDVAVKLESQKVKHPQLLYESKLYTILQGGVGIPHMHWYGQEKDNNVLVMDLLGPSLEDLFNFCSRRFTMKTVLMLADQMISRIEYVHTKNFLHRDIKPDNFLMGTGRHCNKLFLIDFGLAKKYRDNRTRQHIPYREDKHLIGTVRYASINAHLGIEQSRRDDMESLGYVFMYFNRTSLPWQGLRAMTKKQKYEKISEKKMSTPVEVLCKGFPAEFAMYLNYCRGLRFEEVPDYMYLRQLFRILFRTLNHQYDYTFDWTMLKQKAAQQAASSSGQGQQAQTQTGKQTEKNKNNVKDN
Nature of the experiment: Selectivity interaction (KinomeScan (DiscoverX)) EUB0000618a CSNK1A1L. The note with it: at 10 µM.

Chain of Cyclin-dependent kinase 7 (P50613 whole entry): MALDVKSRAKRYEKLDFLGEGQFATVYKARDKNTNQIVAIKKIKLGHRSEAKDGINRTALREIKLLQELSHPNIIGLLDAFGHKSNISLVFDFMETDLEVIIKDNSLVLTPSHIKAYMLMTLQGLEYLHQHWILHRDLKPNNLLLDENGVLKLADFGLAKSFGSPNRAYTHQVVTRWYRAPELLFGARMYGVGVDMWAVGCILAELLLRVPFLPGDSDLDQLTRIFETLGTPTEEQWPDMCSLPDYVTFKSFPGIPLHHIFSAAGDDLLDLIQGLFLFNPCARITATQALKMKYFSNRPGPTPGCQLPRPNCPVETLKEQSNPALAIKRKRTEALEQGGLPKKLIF

For the compound `O=C(NOC[C@H](O)CO)c1ccc(F)c(F)c1Nc1ccc(I)cc1F`, in experiment [1], the % of control was found to be 83%.
As to `COc1cc(N(C)c2ccnc3ccc(C(F)(F)F)cc23)cc(OC)c1OC`, the % binding in experiment [2] came to 100%.
`CN(C)CCOc1ccc(-c2nc(-c3ccncc3)c(-c3ccc4c(c3)CC/C4=N\O)[nH]2)cc1` displayed a % of control in experiment [3] of 88%.
The compound `N#Cc1cccc(-c2c[nH]c3ncnc(N4CCOCC4)c23)c1` yielded a % of control in experiment [4] of 75%.
Regarding `Cc1cc(CN)cc(C)c1-c1ncn(C)c1-c1cncn1C`, the % activity in experiment [5] (at 1 µM) is > 90%; in experiment [5] (at 10 µM) it was > 80%.
`CCC(=O)N1CCN(c2ccc(-n3c(=O)ccc4cnc5ccc(-c6cnc7ccccc7c6)cc5c43)cc2C(F)(F)F)CC1`: the % of control in experiment [6] came to 100%.
Regarding `O[C@H]1CC[C@H](Nc2ncc3nc(Nc4c(F)cc(F)cc4F)n([C@H]4CCOC4)c3n2)CC1`, the % of control in experiment [7] is 94%; in experiment [8], 55%.
